Measurements: paper PMC6736736 (Molecular microbiology, 2019)

Tests used:
ZagA (YciC) [1] = molecular target: T1, ZagA (YciC) (Bacillus subtilis, UniProt P94400); assay: inhibition of ZTP hydrolysis, malachite green assay; format: biochemical; conditions: substrate ZTP
ZagA (YciC) [2] = molecular target: T1, ZagA (YciC); assay: inhibition of GTP hydrolysis, malachite green assay; format: biochemical; conditions: substrate GTP

T1 sequence (P94400 whole entry): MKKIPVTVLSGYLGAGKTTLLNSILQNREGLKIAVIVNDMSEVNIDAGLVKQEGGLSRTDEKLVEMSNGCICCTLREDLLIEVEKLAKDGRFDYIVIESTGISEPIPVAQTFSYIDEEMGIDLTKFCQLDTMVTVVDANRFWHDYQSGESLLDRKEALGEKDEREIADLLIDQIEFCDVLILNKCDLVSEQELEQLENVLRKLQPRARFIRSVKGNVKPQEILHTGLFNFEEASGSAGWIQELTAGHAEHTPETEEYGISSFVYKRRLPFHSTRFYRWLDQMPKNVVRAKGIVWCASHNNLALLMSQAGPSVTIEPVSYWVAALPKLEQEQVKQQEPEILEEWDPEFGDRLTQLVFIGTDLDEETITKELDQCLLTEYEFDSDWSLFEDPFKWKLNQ

Structure (SMILES)	inhibition of ZTPase activity (ZagA (YciC) [1])	inhibition of GTPase activity (ZagA (YciC) [2])
Nc1nc2c(ncn2[C@@H]2O[C@H](COP(=O)(O)OP(=O)(O)NP(=O)(O)O)[C@@H](O)[C@H]2O)c(=O)[nH]1 [GDP-NP]	GDP-NP, a non-hydrolyzable analog of GTP, inhibited ZTP hydrolysis	–
NC(=O)c1ncn([C@@H]2O[C@H](COP(=O)(O)O)[C@@H](O)[C@H]2O)c1N [ZMP]	–	Conversely, ZMP inhibited GTP hydrolysis (Fig 4D)
